PMC8466554, “Heteroaryl-Ethylenes as New Lead Compounds in the Fight against High Priority Bacterial Strains” (Antibiotics, 2021)
≈ marks a conversion by molar mass, not a printed value. Where “and” joins values, the source holds several entries; their conditions need not be identical. Equal entries are not always repeated. Where two headings read alike, the source gives them in different places.

Assays:
[1] = test system: CaCo-2 cells; experiment: MTT cytotoxicity assay; assay type: cell-based, human; conditions: 24 h of incubation relative to untreated controls
Procedure: To evaluate the biological activity of the PBn series, compounds were screened for toxicity against the colon-rectal cancer cell line CaCo-2 (ATCC HTB-37). These human cancer cells were treated with solutions of the compounds at decreasing concentrations, starting from 100 μM up to 0.01 μM. The reference compound used for these assays was 5-Fluorouracil (5-Fu), a pyrimidine analogue belonging to the family of antimetabolite. […] Briefly, human colorectal adenocarcinoma cells (CaCo-2 HTB-37^TM Colorectal Adenocarcinoma Human, American Type Culture Collection, Manassas, VA, USA) were grown in Dulbecco’s MEM (DMEM) with 10% heat-inactivated fetal bovine serum, 2 mM L-Alanyl-L-Glutamine, penicillin-streptomycin (50 units-50 μg for mL) and incubated at 37 °C in a humidified atmosphere of 5% CO2, 95% air. CaCo-2 cells were plated in 96 well pates and incubated at 37 °C. The PBn series compounds and 5-FU were prepared as a 1 mM solution in 10 mL with 0.01% DMSO. Then, 24 h after plating, cells were treated with 20 μL of each solution. Untreated cells were used as controls. […] The results were read on a multiwell scanning spectrophotometer (AF2200 plate reader, Eppendorf, Milan, Italy), using a wavelength of 569 nm.

[2] = test system: Gram-positive and Gram-negative ATCC strains; experiment: MIC and MBC, summary over Gram-positive and Gram-negative strains; assay type: cell-based; conditions: bactericidal effect defined as MBC/MIC ≤ 4
[3] = test system: Gram-positive control strains; experiment: MIC and MBC, summary over Gram-positive control strains; assay type: cell-based, S. aureus and Enterococcus spp.; conditions: for comparison between MIC and MBC values: Gram-positive control strains
[4] = test system: E. faecalis ATCC29212-VSE; experiment: MIC and MBC microtiter plate assay; assay type: cell-based
[5] = test system: S.aureus ATCC29213-MSSA; experiment: MIC and MBC microtiter plate assay; assay type: cell-based, Staphylococcus aureus
[6] = test system: E. coli ATCC25922; experiment: MIC and MBC microtiter plate assay, also with different inocula; assay type: cell-based, Escherichia coli
[7] = test system: K. pneumoniae ATCC700603; experiment: MIC microtiter plate assay; assay type: cell-based, Klebsiella pneumoniae
[8] = test system: A. baumannii ATCC17978; experiment: MIC and MBC microtiter plate assay, also with different inocula; assay type: cell-based, Acinetobacter baumannii
[9] = test system: K. pneumoniae ATCC BAA-2814; experiment: MIC microtiter plate assay; assay type: cell-based, Klebsiella pneumoniae; conditions: K. pneumoniae ATCC BAA-2814 (MDR strain)
[10] = test system: E. faecalis ATCC51299-VRE; experiment: MIC and MBC microtiter plate assay, also with different inocula; assay type: cell-based
[11] = test system: S.aureus Mu50-VISA; experiment: MIC and MBC microtiter plate assay; assay type: cell-based, Staphylococcus aureus
[12] = test system: S.aureus ATCC12598-MSSA; experiment: MIC and MBC microtiter plate assay, also with different inocula; assay type: cell-based, Staphylococcus aureus
[13] = test system: S.aureus USA300-CAMRSA; experiment: MIC and MBC microtiter plate assay; assay type: cell-based, Staphylococcus aureus
[14] = test system: P. aeruginosa ATCC27853; experiment: MIC microtiter plate assay; assay type: cell-based, Pseudomonas aeruginosa
[15] = test system: S. aureus ATCC29213; design: method as in earlier work; conditions: library for the QSAR model, ref [1]; cited from earlier work
[16] = A. baumannii ATCC17978, value in brackets
[17] = E. faecalis ATCC51299-VRE, value in brackets
[18] = E. faecalis ATCC51299, inoculum 1.00101 (1 × 10^1 CFU/mL)
[19] = E. faecalis ATCC51299, inoculum 1.00102 (1 × 10^2 CFU/mL)
[20] = E. faecalis ATCC51299, inoculum 1.00103 (1 × 10^3 CFU/mL)
[21] = E. faecalis ATCC51299, inoculum 1.00104 (1 × 10^4 CFU/mL)
[22] = E. faecalis ATCC51299, inoculum 1.00105 (1 × 10^5 CFU/mL, standard)
[23] = E. faecalis ATCC51299, inoculum 1.00106 (1 × 10^6 CFU/mL)
[24] = E. faecalis ATCC51299, inoculum 1.00107 (1 × 10^7 CFU/mL)
[25] = S. aureus ATCC12598, inoculum 1.00101 (1 × 10^1 CFU/mL)
[26] = S. aureus ATCC12598, inoculum 1.00102 (1 × 10^2 CFU/mL)
[27] = S. aureus ATCC12598, inoculum 1.00103 (1 × 10^3 CFU/mL)
[28] = S. aureus ATCC12598, inoculum 1.00104 (1 × 10^4 CFU/mL)
[29] = S. aureus ATCC12598, inoculum 1.00105 (1 × 10^5 CFU/mL, standard)
[30] = S. aureus ATCC12598, inoculum 1.00106 (1 × 10^6 CFU/mL)
[31] = S. aureus ATCC12598, inoculum 1.00107 (1 × 10^7 CFU/mL)
[32] = S.aureus ATCC12598-MSSA, value in brackets

SMILES: CN(C)c1ccc(/C=C/c2cccc(/C=C/c3ccc(N(C)C)cc3)[n+]2C)cc1.[I-] [PB4]
- IC50 [1]: 319 nM and 320 nM
- MBC/MIC [2]: ≤ 4
- comparison between MIC and MBC values [3]: three values of difference
- MIC ([3]; over the Gram-positive control strains (S. aureus and Enterococcus spp.)): ≤ 16 µg/mL
- MBC [4]: 4 µg/mL
- MIC [4]: 0.5 µg/mL
- MBC ([4]; value in brackets): 7.82 µM
- MIC ([4]; value in brackets): 0.98 µM
- MBC [5]: 2 µg/mL
- MIC [5]: 0.25 µg/mL
- MBC ([5]; value in brackets): 3.91 µM
- MIC ([5]; value in brackets): 0.49 µM
- MBC [6]: 4 µg/mL
- MIC [6]: 1 mg/L
- MIC ([6]; inoculum 1.00101 (1 × 10^1 CFU/mL)): 0.5 mg/L and 0.98 μM
- MIC ([6]; inoculum 1.00102 (1 × 10^2 CFU/mL)): 0.5 mg/L and 0.98 μM
- MIC ([6]; inoculum 1.00103 (1 × 10^3 CFU/mL)): 0.5 mg/L and 0.98 μM
- MIC ([6]; inoculum 1.00104 (1 × 10^4 CFU/mL)): 0.5 mg/L and 0.98 μM
- MIC ([6]; inoculum 1.00105 (1 × 10^5 CFU/mL)): 1 mg/L and 1.96 μM
- MIC ([6]; inoculum 1.00106 (1 × 10^6 CFU/mL)): 1 mg/L and 1.96 μM
- MIC ([6]; inoculum 1.00107 (1 × 10^7 CFU/mL)): 2 mg/L and 3.91 μM
- MBC ([6]; value in brackets): 7.82 µM
- MIC ([6]; value in brackets): 1.96 µM
- MIC [7]: > 128 µg/mL
- MIC ([7]; value in brackets): > 250.27 µM
- MBC ([8]; A. baumannii ATCC17978): 0.5 µg/mL
- MIC ([8]; A. baumannii ATCC17978): 0.25 mg/L
- MIC ([8]; A. baumannii ATCC 17978, inoculum 1.00101 (1 × 10^1 CFU/mL)): < 0.25 mg/L and < 0.49 μM
- MIC ([8]; A. baumannii ATCC 17978, inoculum 1.00102 (1 × 10^2 CFU/mL)): < 0.25 mg/L and < 0.49 μM
- MIC ([8]; A. baumannii ATCC 17978, inoculum 1.00103 (1 × 10^3 CFU/mL)): < 0.49 μM and < 0.25 mg/L
- MIC ([8]; A. baumannii ATCC 17978, inoculum 1.00104 (1 × 10^4 CFU/mL)): 0.25 mg/L and 0.49 μM
- MIC ([8]; A. baumannii ATCC 17978, inoculum 1.00105 (1 × 10^5 CFU/mL)): 0.25 mg/L and 0.49 μM
- MIC ([8]; A. baumannii ATCC 17978, inoculum 1.00106 (1 × 10^6 CFU/mL)): 0.49 µM
- MIC ([8]; A. baumannii ATCC 17978, inoculum 1.00107 (1 × 10^7 CFU/mL)): 1 mg/L and 1.96 μM
- MBC [8, 16]: 0.98 µM
- MIC [8, 16]: 0.49 µM
- MIC [9]: 64 µg/mL
- MIC ([9]; value in brackets): 125.14 µM
- MBC ([10]; E. faecalis ATCC51299-VRE): 4 µg/mL
- MIC ([10]; E. faecalis ATCC51299-VRE): 0.5 mg/L
- MBC [10, 17]: 7.82 µM
- MIC [10, 17]: 0.98 µM
- MIC [10, 18]: 0.06 mg/L and 0.12 μM
- MIC [10, 19]: 0.25 mg/L
- MIC [10, 20]: 0.12 mg/L
- MIC [10, 21]: 0.12 mg/L and 0.24 μM
- MIC [10, 22]: 0.5 mg/L and 0.98 μM
- MIC [10, 23]: 0.5 mg/L and 0.98 μM
- MIC [10, 24]: 0.5 mg/L and 0.98 μM
- MBC [11]: 2 µg/mL
- MIC [11]: 0.25 µg/mL
- MBC ([11]; value in brackets): 3.91 µM
- MIC ([11]; value in brackets): 0.49 µM
- MIC [12, 25]: < 0.015 mg/L and < 0.03 μM
- MIC [12, 26]: < 0.015 mg/L and < 0.03 μM
- MIC [12, 27]: < 0.03 μM and < 0.015 mg/L
- MIC [12, 28]: 0.03 mg/L and 0.06 μM
- MIC [12, 29]: 0.25 mg/L and 0.49 μM
- MIC [12, 30]: 0.25 mg/L and 0.49 μM
- MIC [12, 31]: 4 mg/L and 7.82 μM
- MBC ([12]; S.aureus ATCC12598-MSSA): 2 µg/mL
- MIC ([12]; S.aureus ATCC12598-MSSA): 0.25 mg/L
- MBC [12, 32]: 3.91 µM
- MIC [12, 32]: 0.49 µM
- MBC [13]: 2 µg/mL
- MIC [13]: 0.25 µg/mL
- MBC ([13]; value in brackets): 3.91 µM
- MIC ([13]; value in brackets): 0.49 µM
- MIC [14]: 64 µg/mL
- MIC ([14]; value in brackets): 125.14 µM

SMILES: CCCCN(CCCC)c1ccc(-c2ccc(C=C3CCCc4c[n+](CC)ccc43)s2)s1.[I-] [PB8]
- IC50 [1]: 5010 nM and 5000 nM
- MBC/MIC [2]: ≤ 4
- comparison between MIC and MBC values [3]: no significant differences
- MBC [4]: 4 µg/mL
- MIC [4]: 4 µg/mL
- MBC ([4]; value in brackets): 6.91 µM
- MIC ([4]; value in brackets): 6.91 µM
- MBC [5]: 8 µg/mL
- MIC [5]: 2 µg/mL
- MBC ([5]; value in brackets): 13.83 µM
- MIC ([5]; value in brackets): 3.46 µM
- MIC [6]: 128 mg/L
- MIC ([6]; value in brackets): 221.22 µM
- MIC [7]: > 128 µg/mL
- MIC ([7]; value in brackets): > 221.22 µM
- MIC ([8]; A. baumannii ATCC17978): 128 mg/L
- MIC [8, 16]: 221.22 µM
- MIC [9]: > 128 µg/mL
- MIC ([9]; value in brackets): > 221.22 µM
- MBC ([10]; E. faecalis ATCC51299-VRE): 4 µg/mL
- MIC ([10]; E. faecalis ATCC51299-VRE): 4 mg/L
- MBC [10, 17]: 6.91 µM
- MIC [10, 17]: 6.91 µM
- MIC [10, 18]: 0.5 mg/L and 0.86 μM
- MIC [10, 19]: 4 mg/L and 6.91 μM
- MIC [10, 20]: 4 mg/L and 6.91 μM
- MIC [10, 21]: 4 mg/L and 6.91 μM
- MIC [10, 22]: 4 mg/L and 6.91 μM
- MIC [10, 23]: 8 mg/L and 13.83 μM
- MIC [10, 24]: 32 mg/L and 55.30 μM
- MBC [11]: 8 µg/mL
- MIC [11]: 2 µg/mL
- MBC ([11]; value in brackets): 13.83 µM
- MIC ([11]; value in brackets): 3.46 µM
- MIC [12, 25]: 0.5 mg/L and 0.86 μM
- MIC [12, 26]: 2 mg/L and 3.46 μM
- MIC [12, 27]: 3.46 μM and 2 mg/L
- MIC [12, 28]: 2 mg/L and 3.46 μM
- MIC [12, 29]: 2 mg/L and 3.46 μM
- MIC [12, 30]: 2 mg/L and 3.46 μM
- MIC [12, 31]: 4 mg/L and 6.91 μM
- MBC ([12]; S.aureus ATCC12598-MSSA): 4 µg/mL
- MIC ([12]; S.aureus ATCC12598-MSSA): 2 mg/L
- MBC [12, 32]: 6.91 µM
- MIC [12, 32]: 3.46 µM
- MBC [13]: 4 µg/mL
- MIC [13]: 2 µg/mL
- MBC ([13]; value in brackets): 6.91 µM
- MIC ([13]; value in brackets): 3.46 µM
- MIC [14]: > 128 µg/mL
- MIC ([14]; value in brackets): > 221.22 µM

SMILES: COc1cc(/C=C/c2ccc(O)c(O)c2)cc(OC)c1 [[33]-1]
- MIC [15]: 128 µg/mL (≈ 470 µM)
